Data published in the CheMixHub viscosity set.

Assay: xn = mol fraction of the nth substance listed

O=[N+]([O-])c1ccccc1 + CN(C)C=O
viscosity [mPa·s]
Conditions | 298.15 K | 303.15 K | 308.15 K | 313.15 K
101.3 kPa, x1 = 0.0953 | 0.926 | 0.8671 | 0.8133 | 0.7628
101.3 kPa, x1 = 0.1999 | 1.026 | 0.9585 | 0.8949 | 0.8362
101.3 kPa, x1 = 0.3027 | 1.129 | 1.053 | 0.9803 | 0.9134
101.3 kPa, x1 = 0.4044 | 1.231 | 1.146 | 1.075 | 0.9878
101.3 kPa, x1 = 0.504 | 1.338 | 1.246 | 1.154 | 1.07
101.3 kPa, x1 = 0.6035 | 1.441 | 1.332 | 1.232 | 1.14
101.3 kPa, x1 = 0.7034 | 1.543 | 1.423 | 1.313 | 1.214
101.3 kPa, x1 = 0.8011 | 1.638 | 1.505 | 1.389 | 1.28
101.3 kPa, x1 = 0.8937 | 1.74 | 1.595 | 1.469 | 1.351
101.33 kPa, x2 = 0.1017 | – | 1.524 | – | 1.307
101.33 kPa, x2 = 0.2145 | – | 1.416 | – | 1.22
101.33 kPa, x2 = 0.3053 | – | 1.331 | – | –
101.33 kPa, x2 = 0.3083 | – | – | – | 1.157
101.33 kPa, x2 = 0.404 | – | 1.246 | – | 1.091
101.33 kPa, x2 = 0.5021 | – | 1.165 | – | 1.023
101.33 kPa, x2 = 0.6003 | – | 1.085 | – | 0.952
101.33 kPa, x2 = 0.6968 | – | 1.002 | – | 0.884
101.33 kPa, x2 = 0.7975 | – | 0.917 | – | 0.809
101.33 kPa, x2 = 0.8975 | – | 0.826 | – | 0.738

ClC(Cl)=C(Cl)Cl + CCCCCCCO
303.15 K, 101 kPa
Conditions | viscosity [mPa·s]
x2 = 0.132 | 1.08
x2 = 0.2375 | 1.267
x2 = 0.3539 | 1.511
x2 = 0.4634 | 1.807
x2 = 0.5262 | 2.016
x2 = 0.5927 | 2.259
x2 = 0.6534 | 2.548
x2 = 0.7637 | 3.149
x2 = 0.8512 | 3.725
x2 = 0.9246 | 4.255

c1ccccc1 + CN(C)C=O
298.15 K
Conditions | viscosity [mPa·s]
101 kPa, x1 = 0.0257 | 0.799
101 kPa, x1 = 0.0509 | 0.795
101 kPa, x1 = 0.1031 | 0.783
101 kPa, x1 = 0.1578 | 0.765
101 kPa, x1 = 0.2083 | 0.759
101 kPa, x1 = 0.2579 | 0.75
101 kPa, x1 = 0.3129 | 0.7455
101 kPa, x1 = 0.3651 | 0.739
101 kPa, x1 = 0.4202 | 0.725
101 kPa, x1 = 0.469 | 0.711
101 kPa, x1 = 0.5167 | 0.7175
101 kPa, x1 = 0.5779 | 0.7
101 kPa, x1 = 0.6247 | 0.697
101 kPa, x1 = 0.6758 | 0.6825
101 kPa, x1 = 0.7167 | 0.671
101 kPa, x1 = 0.7855 | 0.653
101 kPa, x1 = 0.8262 | 0.643
101 kPa, x1 = 0.8944 | 0.6255
101 kPa, x1 = 0.9372 | 0.615
101 kPa, x1 = 0.9409 | 0.614
101 kPa, x1 = 0.9761 | 0.605
101.33 kPa, x1 = 0.1225 | 0.7645
101.33 kPa, x1 = 0.2494 | 0.7375
101.33 kPa, x1 = 0.4823 | 0.6925
101.33 kPa, x1 = 0.6236 | 0.6672
101.33 kPa, x1 = 0.7499 | 0.6477
101.33 kPa, x1 = 0.8733 | 0.6245

ClC(Cl)=C(Cl)Cl + Clc1ccccc1
303.15 K, 101 kPa
Conditions | viscosity [mPa·s]
x1 = 0.1416 | 0.716
x1 = 0.2048 | 0.717
x1 = 0.2727 | 0.718
x1 = 0.3562 | 0.72
x1 = 0.4651 | 0.728
x1 = 0.5412 | 0.739
x1 = 0.6279 | 0.751
x1 = 0.718 | 0.766
x1 = 0.8422 | 0.786
x1 = 0.9302 | 0.802

CCOCCOCCO + ClC(Cl)=C(Cl)Cl
298.15 K, 101.33 kPa
Conditions | viscosity [mPa·s]
x1 = 0.0123 | 0.859
x1 = 0.0256 | 0.874
x1 = 0.0478 | 0.903
x1 = 0.0645 | 0.928
x1 = 0.0824 | 0.956
x1 = 0.097 | 0.979
x1 = 0.1126 | 1.012
x1 = 0.1488 | 1.081
x1 = 0.1758 | 1.135
x1 = 0.2057 | 1.196
x1 = 0.2427 | 1.278
x1 = 0.2829 | 1.371
x1 = 0.3332 | 1.493
x1 = 0.3756 | 1.61
x1 = 0.4139 | 1.717
x1 = 0.4562 | 1.843
x1 = 0.4889 | 1.949
x1 = 0.5216 | 2.063
x1 = 0.5734 | 2.246
x1 = 0.6176 | 2.412
x1 = 0.6576 | 2.552
x1 = 0.6972 | 2.699
x1 = 0.7396 | 2.858
x1 = 0.8033 | 3.119
x1 = 0.854 | 3.335
x1 = 0.8945 | 3.519
x1 = 0.9227 | 3.64
x1 = 0.9398 | 3.718
x1 = 0.9556 | 3.786
x1 = 0.9736 | 3.873
x2 = 0.0112 | 3.936
